Assay results reported in BindingDB's records for doi:10.1016/j.ejmech.2009.11.010 (Chinese Academy of Sciences, 2010).

molecular target: T1, Cathepsin K (Homo sapiens, UniProt P43235); assay: Inhibition of human cathepsin K
T1 sequence (P43235 whole entry): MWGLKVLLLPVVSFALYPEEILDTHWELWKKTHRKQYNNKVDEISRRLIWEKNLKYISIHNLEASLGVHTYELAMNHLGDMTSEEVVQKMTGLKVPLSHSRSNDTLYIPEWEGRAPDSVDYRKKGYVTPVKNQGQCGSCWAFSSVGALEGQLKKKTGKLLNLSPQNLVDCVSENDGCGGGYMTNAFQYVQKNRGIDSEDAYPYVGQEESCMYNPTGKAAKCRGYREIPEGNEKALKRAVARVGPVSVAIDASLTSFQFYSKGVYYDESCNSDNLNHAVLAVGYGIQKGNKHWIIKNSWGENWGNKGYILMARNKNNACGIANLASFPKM

Row | SMILES | IC50 [nM]
1 | CCCC[C@H](NC(=O)O[C@H](Cc1nnc(-c2ccc(F)cc2)o1)C(C)(C)C)C(=O)C(=O)N[C@H](C)c1ccccc1 [[(S)-1-(1-Phenyl-ethylaminooxalyl)-pentyl]-carbamic acid (R)-1-[5-(4-fluoro-phenyl)-[1,3,4]oxadiazol-2-ylmethyl]-2,2-dimethyl-propyl ester] | 0.372
2 | CCCC[C@H](NC(=O)O[C@H](CN1CCN(c2ccc(C(F)(F)F)cc2)C1=O)C(C)(C)C)C(=O)C(=O)Nc1ccn[nH]1 [(S)-3,3-dimethyl-1-(2-oxo-3-(4-(trifluoromethyl)phenyl)imidazolidin-1-yl)butan-2-yl(S)-1-(1H-pyrazol-5-ylamino)-1,2-dioxoheptan-3-ylcarbamate] | 0.339
3 | CCCC[C@H](NC(=O)O[C@H](Cc1nnc(-c2ccccc2)o1)C(C)(C)C)C(=O)C(=O)N[C@H](C)c1ccccc1 [(R)-3,3-dimethyl-1-(5-phenyl-1,3,4-oxadiazol-2-yl)butan-2-yl(S)-1,2-dioxo-1-((R)-1-phenylethylamino)heptan-3-ylcarbamate] | 0.24
4 | CCCC[C@H](NC(=O)O[C@H](Cc1nnc(-c2ccc(C(F)(F)F)cc2)o1)C(C)(C)C)C(=O)C(=O)NN1CCOC1=O [(1R)-2,2-DIMETHYL-1-({5-[4-(TRIFLUOROMETHYL)PHENYL]-1,3,4-OXADIAZOL-2-YL}METHYL)PROPYL (1S)-1-{OXO[(2-OXO-1,3-OXAZOLIDIN-3-YL)AMINO]ACETYL}PENTYLCARBAMATE] | 0.129
5 | CCCC[C@H](NC(=O)O[C@H](Cc1nnc(-c2ccc(F)cc2)o1)C(C)(C)C)C(=O)C(=O)NCc1cccnc1 [(R)-1-(5-(4-fluorophenyl)-1,3,4-oxadiazol-2-yl)-3,3-dimethylbutan-2-yl(S)-1,2-dioxo-1-(pyridin-3-ylmethylamino)heptan-3-ylcarbamate] | 2.82

Continued, values first:

Row | IC50 [nM] | SMILES
6 | 0.0288 | CCCC[C@H](NC(=O)O[C@H](Cc1nnc(-c2ccc(C(F)(F)F)cc2)o1)C(C)(C)C)C(=O)C(=O)Nc1ccn[nH]1 [[(S)-1-(2H-Pyrazol-3-ylaminooxalyl)-pentyl]-carbamic acid (R)-2,2-dimethyl-1-[5-(4-trifluoromethyl-phenyl)-[1,3,4]oxadiazol-2-ylmethyl]-propyl ester]
7 | 0.407 | CCCC[C@H](NC(=O)O[C@H](Cc1nnc(-c2ccc(C(F)(F)F)cc2)o1)C(C)(C)C)C(=O)C(=O)N[C@H](C)c1ccccc1 [[(S)-1-(1-Phenyl-ethylaminooxalyl)-pentyl]-carbamic acid (R)-2,2-dimethyl-1-[5-(4-trifluoromethyl-phenyl)-[1,3,4]oxadiazol-2-ylmethyl]-propyl ester]
8 | 5.75 | CCCC[C@H](NC(=O)O[C@H](Cn1cnc(-c2ccc(C(F)(F)F)cc2)c1)C(C)(C)C)C(=O)C(=O)Nc1nccs1 [[(S)-1-(Thiazol-2-ylaminooxalyl)-pentyl]-carbamic acid (S)-2,2-dimethyl-1-[4-(4-trifluoromethyl-phenyl)-imidazol-1-ylmethyl]-propyl ester]
9 | 457 | CCCC[C@H](NC(=O)O[C@@H](Cc1nnc(-c2ccccc2)o1)C(C)(C)C)C(=O)C(=O)N[C@H](C)c1ccccc1 [[(S)-1-(1-Phenyl-ethylaminooxalyl)-pentyl]-carbamic acid (S)-2,2-dimethyl-1-(5-phenyl-[1,3,4]oxadiazol-2-ylmethyl)-propyl ester]
